{"source": "patent US7700615B2", "about": "“Cell migration inhibiting compositions and methods and compositions for treating cancer” (Avolix Pharmaceuticals, Inc., priority 2002, dated 2010)", "key": {"[1]": {"system": "MDA-MB-231 breast cancer cells", "test": "scid mouse human breast tumor model (tumor growth, survival)", "format": "in vivo, scid mice", "quoted_text": "Measuring the synergy of a combination of a chemical and a chemotherapeutic agent may also be performed by evaluating the growth inhibitory effects of a chemotherapeutic agent and a cell migration inhibitor in a severe combined immunodeficient (scid) mouse human tumor model. Such measurements include screening mice for immunoglobulin (Ig) production by an enzyme-linked immunosorbent assay (ELISA). A number of mice are injected with cancer cells in saline using a subcutaneous (SC) injection. Mice with established tumors are selected and stratified according to groups including: a control group, a group treated with a chemotherapeutic agent alone, a group treated with a cell migration inhibitor alone, and one or more groups treated with various combinations of the chemotherapeutic agent and the cell migration inhibitor. The groups designated to be treated with at least the chemotherapeutic agent are injected with the chemotherapeutic agent or the chemotherapeutic agent diluent by intraperitoneal (IP, within abdominal cavity) injection on the first day of treatment. […] Tumor growth may be measured about twice a week throughout the experiment, and the tumor volume may be estimated using the following formula: [(width)^2×length]/2. […]\nThe scid mouse human breast tumor model was used to evaluated cancer cells of the cell line MDA-MB-231 treated with various compositions. […]"}, "[2]": {"system": "melanoma cancer cell line WM1791C", "test": "Cell migration rate dose response, melanoma cancer cells", "format": "cell-based", "details": "concentration of 0.025 μM", "method": "(§1) The guided cell sedimentation apparatus may be used to deposit cells onto a substrate at predetermined locations. A manifold and a substrate as described above may be stored in autoclave bags and steam autoclaved for about 1 hour to sterilize the manifold. The manifold may then be stored at about 4° C. until testing is to be performed. FIG. 3 illustrates a top schematic view of substrate 14. Prior to deposition, the surface of substrate 14 onto which the cells will be deposited is treated according to the experiment to be performed. For example, about 20 μl of a surface coating may be added to each well and incubated for about 1 hour at about 37° C. Just prior to deposition of the cells, Teflon-defined wells 24 on the substrate are hydrated in a culture media appropriate for the cells under study. Approximately 50 μl of culture media is deposited onto each well. […]\n(§2) Cell migration may be monitored over time by monitoring the location of individual cells over time or measuring the radius of a circle surrounding the cells over time. […] The peripheral cells are easily detected because the cells can be deposited as a confluent monolayer within a predetermined area. […] Alternatively, designations such as numbers can be assigned to individual cells such that cells may be counted or characterized within the deposited sample of cells. […]"}, "[3]": {"system": "breast cancer cell line MDA-MB-231", "test": "Cell migration rate dose response, breast cancer cells", "format": "cell-based, human", "details": "concentration of 2.00 μM", "method": "as §1, §2"}, "[4]": {"system": "normal fibroblasts", "test": "Cell migration of normal fibroblasts", "format": "cell-based", "details": "compared with control sample of untreated cells", "method": "(§3) The guided cell sedimentation apparatus may be used to deposit cells onto a substrate at predetermined locations. A manifold and a substrate as described above may be stored in autoclave bags and steam autoclaved for about 1 hour to sterilize the manifold. The manifold may then be stored at about 4° C. until testing is to be performed. FIG. 3 illustrates a top schematic view of substrate 14. Prior to deposition, the surface of substrate 14 onto which the cells will be deposited is treated according to the experiment to be performed. For example, about 20 μl of a surface coating may be added to each well and incubated for about 1 hour at about 37° C. Just prior to deposition of the cells, Teflon-defined wells 24 on the substrate are hydrated in a culture media appropriate for the cells under study. Approximately 50 μl of culture media is deposited onto each well. […] A small aliquot of the culture media (i.e., about 1 μl) is aspirated from each channel of the manifold to eliminate air bubbles within the channels.\nThe cells are harvested from a culture according to any method known in the art. The cell concentration is adjusted to about 2000 cells/μl. An appropriate cell concentration may vary depending on the cell type. The cells are deposited into each channel in a volume of about 1 μl. The number of cells deposited onto the substrate varies depending upon the physical characteristics of the cells under study. For example, about 500 to about 3000 cells are deposited in each location. The manifold, substrate, and cells should stand undisturbed for a period of time of, for example, about 30 minutes. During the time, the cells will sediment. Sedimentation is generally defined as a process in which gravity causes heavier objects in a suspension to settle to the lowest part of the system. As used herein, sedimentation refers to the process in which gravity causes cells to settle through a standing column of culture media that fills the channels in the manifold. Forces greater than gravity should be avoided to prevent damage of the cells.\nThe manifold, substrate, and cells are transferred to a controlled temperature and atmosphere tissue culture incubator for several hours to overnight to allow the cells to attach to the surface of the substrate. Appropriate conditions for the incubator are about 37° C., about […] (CO2), and humidified air. The cells sediment onto a defined location at the bottom of the channel. Therefore, when the manifold is removed from the substrate, the cells are deposited as discs 26 of cells at predetermined locations on the substrate, as shown in FIG. 3. Such sedimentation of cells may further include any other steps of the methods as described by Berens. After the cells are attached and the manifold has been removed, the cells in each well may be re-fed with an appropriate solution.\nas §2"}, "[5]": {"system": "lung cancer cell line MV522", "test": "Cell migration inhibition of lung cancer cells", "format": "cell-based", "details": "compared with untreated control sample", "method": "as §1, §2"}, "[6]": {"system": "glioma cancer cell line SF 767", "test": "Cell migration rate dose response, glioma cancer cells", "format": "cell-based", "details": "concentration of 2.00 μM", "method": "as §1, §2"}, "[7]": {"system": "HUVEC cells", "test": "Angiogenesis inhibition: cell migration of HUVEC cells", "format": "cell-based, Human", "details": "compared with untreated control sample", "method": "as §3\nThe cells are harvested from a culture according to any method known in the art. The cell concentration is adjusted to about 2000 cells/μl. An appropriate cell concentration may vary depending on the cell type. The cells are deposited into each channel in a volume of about 1 μl. The number of cells deposited onto the substrate varies depending upon the physical characteristics of the cells under study. For example, about 500 to about 3000 cells are deposited in each location. The manifold, substrate, and cells should stand undisturbed for a period of time of, for example, about 30 minutes. […]\nas §2"}, "[8]": {"system": "pancreatic cancer cell line MiaPaCa-2", "test": "Cell migration inhibition of pancreatic cancer cells", "format": "cell-based", "details": "compared with untreated control sample", "method": "as §1, §2"}}}
{"smiles": "Cc1ccc(C(=O)O)cc1[N+](=O)[O-]", "note": "[4-methyl-3-nitro-benzoic acid]", "values": [{"measurement": "% Survival after 100 days", "setting": "[1]; 4-methyl-3-nitro-benzoic acid alone (30 mg/kg, IP qod×5)", "result": 0, "unit": "%"}, {"measurement": "cell migration rate", "setting": "[2]", "result": "less than 50 μM/day"}, {"measurement": "cell migration rate", "setting": "[3]", "result": "about 75 μm/day"}, {"measurement": "cell migration rate of normal fibroblasts", "setting": "[4]", "result": "essentially no effect"}, {"measurement": "cell migration rate", "setting": "[5]", "result": "markedly reduced migration"}]}
{"smiles": "CCCC1CCC(C2CCC(C(=O)O)CC2)CC1", "note": "(stereo not drawn) [4′-propyl-bicyclohexyl-4-carboxylic acid]", "values": [{"measurement": "cell migration rate", "setting": "[6]", "result": "about 50 μm/day"}, {"measurement": "cell migration rate of normal fibroblasts", "setting": "[4]", "result": "essentially no effect"}]}
{"smiles": "COc1ccc(C2C(C(=O)c3ccc(Cl)cc3)N3c4ccccc4C=CC3C2(C#N)C#N)cc1OC", "note": "(stereo not drawn) [NS20494, 1-(4-chloro-benzoyl)-2-(3,4-dimethoxy-phenyl)-1,2-dihydro-3aH-pyrrolo[1,2-a]quinoline-3,3-dicarbonitrile]", "values": [{"measurement": "cell migration rate", "setting": "[7]", "result": "markedly reduced migration"}, {"measurement": "cell migration rate", "setting": "[8]", "result": "markedly reduced migration"}, {"measurement": "cell migration rate of normal fibroblasts", "setting": "[4]", "result": "essentially no effect"}]}
{"smiles": "CC(=O)O[C@H]1C(=O)[C@@]2(C)[C@H]([C@H](OC(=O)c3ccccc3)[C@]3(O)C[C@H](OC(=O)[C@H](O)[C@@H](NC(=O)c4ccccc4)c4ccccc4)C(C)=C1C3(C)C)[C@]1(OC(C)=O)CO[C@@H]1C[C@@H]2O", "note": "[Taxol, paclitaxel, reference compound]", "values": [{"measurement": "% Survival after 100 days", "setting": "[1]; Taxol alone (10 mg/kg, IP qod×5)", "result": 0, "unit": "%"}]}
{"smiles": "N#Cc1c(NC(=O)c2cccc(I)c2)sc2c1CCCC2", "note": "[compound 301, N-(3-cyano-4,5,6,7-tetrahydro-benzo[b]thiophen-2-yl)-3-iodo-benzamide]", "values": [{"measurement": "cell migration rate", "setting": "[7]", "result": "markedly reduced migration"}, {"measurement": "cell migration rate of normal fibroblasts", "setting": "[4]", "result": "essentially no effect"}]}
{"smiles": "C1=C(c2ccc3c(c2)OCCO3)NN=C(Nc2ccccc2)S1", "note": "[compound 302, [5-(2,3-dihydro-benzo[1,4]dioxin-6-yl)-4H-[1,3,4]thiadiazin-2-yl]-phenyl-amine]", "values": [{"measurement": "cell migration rate", "setting": "[7]", "result": "markedly reduced migration"}, {"measurement": "cell migration rate of normal fibroblasts", "setting": "[4]", "result": "essentially no effect"}]}
